Source: patent publication US11578055B2, “Triazacyclododecansulfonamide (“TCD”)-based protein secretion inhibitors” (KEZAR LIFE SCIENCES, priority 2018, dated 2023)
Where a name gives a salt, the structure may show the parent alone.

Columns and labels:
[1] = system: full length TNFα (amino acids 1-233) fused to Gaussia Luciferase; experiment: Dox Induced TNFα-FL-Gluc Assay; assay type: cell-based; details: 24 hr, 293FRT/TO; read-out: 24 hr Dox Inducible TNFaFLGluc 293FRT/TO: Mean IC50
Summary of the method: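 Stable Flp-In 293 T-REx line expressing doxycycline-inducible full-length TNFα fused to Gaussia luciferase; cells plated the day before, then treated with compound dilutions in doxycycline-containing medium at 37° C, 5% CO2. Unspecified stereocentres mean stereoisomer mixtures were tested.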

[2] = In Vitro Microsome Stability Assay (rat); assay type: in vitro ADME; details: rat, 30 min, NADPH
Summary of the method: (§1)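 Test article, added from a 0.25 mM DMSO stock, was incubated with liver microsomes (20 mg/mL stock) in 0.1 M potassium phosphate at 37° C, with the reaction started by NADPH. Samples were quenched with acetonitrile containing internal standard at 0 and 30 min and analysed by LC-MS/MS. Values are % remaining at 30 min versus 0 min, using IS-normalised AUC ratios.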

[3] = In Vitro Microsome Stability Assay (monkey); assay type: in vitro ADME; details: monkey, 30 min, NADPH
Summary of the method: as §1

[4] = In Vitro Microsome Stability Assay (human); assay type: in vitro ADME; details: human, 30 min, NADPH
Summary of the method: as §1

[5] = In Vitro Microsome Stability Assay (mouse); assay type: in vitro ADME; details: mouse, 30 min, NADPH
Summary of the method: as §1

[6] = system: multiple myeloma cell line U266B1; experiment: U266 Cell Viability Assay; assay type: cell-based, human; details: Homo sapiens, U-266; 48 hr, U266; read-out: 48 hr U266 Viability Celltiter-Glo: Mean EC50
Summary of the method: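 U266B1 myeloma cells in RPMI 1640 with 10% FBS were treated with compound dilutions for 48 h at 37° C, 5% CO2. Viability was read as CellTiter-Glo luminescence. Data for structures drawn without stereochemistry refer to stereoisomer mixtures.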

[7] = system: multiple myeloma cell line NCl-H929; experiment: H929 Cell Viability Assay; assay type: cell-based, human; details: Homo sapiens, NCI-H929, 48 h, H929, read-out: 48 hr H929 Viability Celltiter-Glo: Mean EC50
Summary of the method: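 NCI-H929 myeloma cells in RPMI 1640 with 10% FBS were treated with compound dilutions for 48 h at 37 °C, and viability was then read by CellTiter-Glo luminescence. Compounds drawn without stereochemistry were tested as stereoisomer mixtures.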

[8] = system: PD1 signal sequence plus 10 amino acids fused to Gaussia Luciferase (PD1-ss+10aa/Gaussia Luciferase); experiment: Dox Induced PD1-ss-Gluc Assay; assay type: cell-based; details: 24 hr, 293FRT/TO; read-out: 24 hr Dox Inducible PD1ssGluc 293FRT/TO: Mean IC50
Summary of the method: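 Stable Flp-In 293 T-REx line expressing the fusion under tetracycline-inducible control, plated the day before assay. Compound dilutions added with doxycycline and incubated at 37 °C, 5% CO2; unspecified stereocentres mean data refer to stereoisomer mixtures.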

| Compound | IC50 [1] [µM] | Liver Microsome Stability-% Left after 30 min w/ NADPH (%) Rat [2] [%] | Liver Microsome Stability-% Left after 30 min w/ NADPH (%) Monkey [3] [%] | Liver Microsome Stability-% Left after 30 min w/ NADPH (%) Human [4] [%] | Liver Microsome Stability-% Left after 30 min w/ NADPH (%) Mouse [5] [%] | EC50 [6] [µM] | EC50 [7] [µM] | IC50 [8] [µM] |
| --- | --- | --- | --- | --- | --- | --- | --- | --- |
| C=C1CN(S(=O)(=O)c2ccc(N(C)C)cc2)CCCN(CC2CCCCC2)CCCN(S(=O)(=O)N2CCc3cccc(Cl)c3C2)C1 [A51, 4-({5-[(8-chloro-1,2,3,4-tetrahydroisoquinolin-2-yl)sulfonyl]-9-(cyclohexylmethyl)-3-methylidene-1,5,9-triazacyclododecan-1-yl}sulfonyl)-N,N-dimethylaniline] | 3.07 | 34.7 | 23.6 | 26.7 | 28 | > 25 | 6.15 | 0.0614 |
| CC1CN(S(=O)(=O)c2ccc(N(C)C)cc2)CCCN(CC2CCCCC2)CCCN(S(=O)(=O)N2CCC(c3ccccc3)CC2)C1 (stereo not drawn) [A44, 4-{[9-(cyclohexylmethyl)-3-methyl-5-[(4-phenylpiperidin-1-yl)sulfonyl]-1,5,9-triazacyclododecan-1-yl]sulfonyl}-N,N-dimethylaniline hydrochloride] | 12.7 | 54 | 38 | 47.6 | 43.8 | > 25 | > 25 | 0.132 |
| C=C1CN(S(=O)(=O)c2ccc(N(C)C)cc2)CCCN(CC2CCCCC2)CCCN(S(=O)(=O)N(C)C)C1 [A16, 9-(cyclohexylmethyl)-5-[4-(dimethylamino)benzenesulfonyl]-N,N-dimethyl-3-methylidene-1,5,9-triazacyclododecane-1-sulfonamide] | 6.34 | 2.62 | 41.1 | 0.11 | 2.09 | > 25 | 4.98 | 0.108 |
| CC1CCCN(S(=O)(=O)N2CCCN(CC3CCCCC3)CCCN(S(=O)(=O)c3ccc(N(C)C)cc3)CC3(CC3)C2)C1 (stereo not drawn) [A21, 4-{[9-(cyclohexylmethyl)-13-[(3-methylpiperidin-1-yl)sulfonyl]-5,9,13-triazaspiro[2.11]tetradecan-5-yl]sulfonyl}-N,N-dimethylaniline] | 10 | 0.62 | 0.11 | 0.14 | 1.77 | > 25 | 8.29 | 0.184 |
| C=C1CN(S(=O)(=O)c2ccc(N(C)C)cc2)CCCN(CC2CCCCC2)CCCN(S(=O)(=O)N2CCCC(c3ccccc3)C2)C1 (stereo not drawn) [A38, 4-{[9-(cyclohexylmethyl)-3-methylidene-5-[(3-phenylpiperidin-1-yl)sulfonyl]-1,5,9-triazacyclododecan-1-yl]sulfonyl}-N,N-dimethylaniline] | 5.49 | 24.2 | 9.04 | 11.4 | 12.6 | > 25 | > 11.8 | 0.0751 |
| COC1CCN(S(=O)(=O)N2CCCN(CC3CCCCC3)CCCN(S(=O)(=O)c3ccc(N(C)C)cc3)CC3(CC3)C2)CC1 [A27, 4-{[9-(cyclohexylmethyl)-13-[(4-methoxypiperidin-1-yl)sulfonyl]-5,9,13-triazaspiro[2.11]tetradecan-5-yl]sulfonyl}-N,N-dimethylaniline] | > 25 | 0.98 | 2.07 | 2.52 | 2.15 | > 25 | > 25 | 0.493 |
| C=C1CN(S(=O)(=O)c2ccc(N(C)C)cc2)CCCN(CC2CCCCC2)CCCN(S(=O)(=O)N2CCN(c3ccccc3Cl)CC2)C1 [A83, 4-[(5-{[4-(2-chlorophenyl)piperazin-1-yl]sulfonyl}-9-(cyclohexylmethyl)-3-methylidene-1,5,9-triazacyclododecan-1-yl)sulfonyl]-N,N-dimethylaniline] | 0.961 | 47.6 | 34.9 | 39.3 | 23.4 | > 25 | 0.96 | 0.0282 |
| C=C1CN(S(=O)(=O)c2ccc(N(C)C)cc2)CCCN(CC2CCCCC2)CCCN(S(=O)(=O)N2CCc3cc(C#N)ccc3C2)C1 [A70, 2-{[9-(cyclohexylmethyl)-5-[4-(dimethylamino)benzenesulfonyl]-3-methylidene-1,5,9-triazacyclododecan-1-yl]sulfonyl}-1,2,3,4-tetrahydroisoquinoline-6-carbonitrile] | 1.3 | 6.75 | 3.26 | 1.36 | 3.14 | > 25 | 3.02 | 0.0461 |
| C=C1CN(S(=O)(=O)c2ccc(N(C)C)cc2)CCCN(CC2CCCCC2)CCCN(S(=O)(=O)N2CCc3cc(Br)ccc3C2)C1 [A60, 4-({5-[(6-bromo-1,2,3,4-tetrahydroisoquinolin-2-yl)sulfonyl]-9-(cyclohexylmethyl)-3-methylidene-1,5,9-triazacyclododecan-1-yl}sulfonyl)-N,N-dimethylaniline] | 0.886 | 50.3 | 38.7 | 46.7 | 60.8 | > 25 | 1.48 | 0.0185 |
| CC1CCCCN1S(=O)(=O)N1CCCN(CC2CCCCC2)CCCN(S(=O)(=O)c2ccc(N(C)C)cc2)CC2(CC2)C1 (stereo not drawn) [A20, 4-{[9-(cyclohexylmethyl)-13-[(2-methylpiperidin-1-yl)sulfonyl]-5,9,13-triazaspiro[2.11]tetradecan-5-yl]sulfonyl}-N,N-dimethylaniline] | > 25 | 0.19 | 0.06 | 0.05 | 0.07 | > 25 | 12.8 | 0.207 |
| COc1ccc(S(=O)(=O)N2CCCN(CC3CCCCC3)CCCN(S(=O)(=O)N3CCCCC3)CC3(CC3)C2)cc1 [A31, 9-(cyclohexylmethyl)-5-(4-methoxybenzenesulfonyl)-13-(piperidine-1-sulfonyl)-5,9,13-triazaspiro[2.11]tetradecane] | > 25 | 0.09 | 0.03 | 0.05 | 0.25 | > 25 | > 25 | 0.619 |
| C=C1CN(S(=O)(=O)c2ccc(N(C)C)cc2)CCCN(CC2CCCCC2)CCCN(S(=O)(=O)N2CCC(C3CCOCC3)CC2)C1 [A78, 4-{[9-(cyclohexylmethyl)-3-methylidene-5-{[4-(oxan-4-yl)piperidin-1-yl]sulfonyl}-1,5,9-triazacyclododecan-1-yl]sulfonyl}-N,N-dimethylaniline] | > 25 | 0.25 | 0.11 | 0.2 | 0.15 | > 25 | > 25 | 0.36 |
